Results from publication PMC10831120, “Nitric oxide synthase-guided genome mining identifies a cytochrome P450 enzyme for olefin nitration in bacterial specialized metabolism” (Synthetic and Systems Biotechnology, 2024).
pKd: −log10 of the molar value.

Molecular target: T1, Laj2 (cytochrome P450)
T1 construct: His6-tagged Laj2 (405 aa), expressed in E. coli
Assay: UV-vis difference spectral titration (type I binding spectra), one-site fit; nitration turnover also shown by LC-MS
Design: species or system Streptomyces qinglanensis

Compound: C/C=C(C)/C=C/C=C\C=C(\C)C(O)C(C)(C)C(=O)NC/C=C/C=C/C(O)C(C)CC(OC)C1(O)C(C)C(=O)N(C)C12COC2=O (stereo not shown) [compound 4, denitrolajollamycin]
- pKd: ~4.22
